Experimental data as given in the supplement of paper PMC4932681.

How the values were obtained:
[1] = test system: BT-474 Tam1; experiment: drug sensitivity score (DSS) (DSS (dimensionless)); higher = more sensitive; extreme values may be limits of the assay; conditions: 4-OH-tamoxifen in medium 1 µM; 72 h
Summary of the method: (§1)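 After seeding into 384-well plates with library drugs at five concentrations spanning a 10 000-fold range, breast cancer cell lines and their resistant derivatives were incubated 72 h at 37 °C. Resistant lines received medium with 1 μM of the selecting drug. CellTiter-Glo signal was read on a PHERAstar and scaled to vehicle-only and positive controls. Drug sensitivity score, relative IC50 (the curve midpoint) and top-dose inhibition came from logistic fits run in the Breeze pipeline.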

[2] = test system: BT-474 Tam2; experiment: as above; conditions: 4-OH-tamoxifen in medium 1 µM; 72 h
Summary of the method: as §1

[3] = test system: BT-474; experiment: as above; conditions: 72 h
Summary of the method: as §1

[4] = test system: MCF-7 Tam1; experiment: as above; conditions: 4-OH-tamoxifen in medium 1 µM; 72 h
Summary of the method: as §1

[5] = test system: MCF-7; experiment: as above; conditions: 72 h
Summary of the method: as §1

[6] = test system: T-47D Tam1; experiment: as above; conditions: 4-OH-tamoxifen in medium 1 µM; 72 h
Summary of the method: as §1

[7] = test system: T-47D Tam2; experiment: as above; conditions: 4-OH-tamoxifen in medium 1 µM; 72 h
Summary of the method: as §1

[8] = test system: T-47D; experiment: as above; conditions: 72 h
Summary of the method: as §1

[9] = test system: ZR-75-1 Tam1; experiment: as above; conditions: 4-OH-tamoxifen in medium 1 µM; 72 h
Summary of the method: as §1

[10] = test system: ZR-75-1 Tam2; experiment: as above; conditions: 4-OH-tamoxifen in medium 1 µM; 72 h
Summary of the method: as §1

[11] = test system: ZR-75-1; experiment: as above; conditions: 72 h
Summary of the method: as §1

[12] = test system: BT-474 Tam1; experiment: relative IC50 (midpoint of fitted logistic curve, plateau may be below 50% inhibition; CellTiter-Glo viability); higher = less potent; conditions: 4-OH-tamoxifen in medium 1 µM; 72 h
Summary of the method: as §1

[13] = test system: BT-474 Tam2; experiment: as above; conditions: 4-OH-tamoxifen in medium 1 µM; 72 h
Summary of the method: as §1

[14] = test system: BT-474; experiment: as above; conditions: 72 h
Summary of the method: as §1

[15] = test system: MCF-7 Tam1; experiment: as above; conditions: 4-OH-tamoxifen in medium 1 µM; 72 h
Summary of the method: as §1

[16] = test system: T-47D Tam2; experiment: as above; conditions: 4-OH-tamoxifen in medium 1 µM; 72 h
Summary of the method: as §1

[17] = test system: T-47D; experiment: as above; conditions: 72 h
Summary of the method: as §1

[18] = test system: ZR-75-1 Tam2; experiment: as above; conditions: 4-OH-tamoxifen in medium 1 µM; 72 h
Summary of the method: as §1

[19] = test system: ZR-75-1; experiment: as above; conditions: 72 h
Summary of the method: as §1

[20] = test system: MCF-7; experiment: as above; conditions: 72 h
Summary of the method: as §1

[21] = test system: ZR-75-1 Tam1; experiment: as above; conditions: 4-OH-tamoxifen in medium 1 µM; 72 h
Summary of the method: as §1

SMILES	drug sensitivity score [1]	drug sensitivity score [2]	drug sensitivity score ([3]; 4-OH-tamoxifen in medium 0 µM)	drug sensitivity score ([3]; 4-OH-tamoxifen in medium 1 µM)	drug sensitivity score [4]	drug sensitivity score ([5]; 4-OH-tamoxifen in medium 0 µM)	drug sensitivity score ([5]; 4-OH-tamoxifen in medium 1 µM)	drug sensitivity score [6]	drug sensitivity score [7]	drug sensitivity score ([8]; 4-OH-tamoxifen in medium 0 µM)	drug sensitivity score ([8]; 4-OH-tamoxifen in medium 1 µM)	drug sensitivity score [9]	drug sensitivity score [10]	drug sensitivity score ([11]; 4-OH-tamoxifen in medium 0 µM)	drug sensitivity score ([11]; 4-OH-tamoxifen in medium 1 µM)	relative IC50 [12]	relative IC50 [13]	relative IC50 ([14]; 4-OH-tamoxifen in medium 0 µM)	relative IC50 ([14]; 4-OH-tamoxifen in medium 1 µM)	relative IC50 [15]	relative IC50 [16]	relative IC50 ([17]; 4-OH-tamoxifen in medium 1 µM)	relative IC50 [18]	relative IC50 ([19]; 4-OH-tamoxifen in medium 1 µM)	relative IC50 ([20]; 4-OH-tamoxifen in medium 0 µM)	relative IC50 ([20]; 4-OH-tamoxifen in medium 1 µM)	relative IC50 [21]	relative IC50 ([19]; 4-OH-tamoxifen in medium 0 µM)	relative IC50 ([17]; 4-OH-tamoxifen in medium 0 µM)
Cc1c(N)nc([C@H](CC(N)=O)NC[C@H](N)C(N)=O)nc1C(=O)N[C@H](C(=O)N[C@H](C)[C@@H](O)[C@H](C)C(=O)N[C@H](C(=O)NCCc1nc(-c2nc(C(=O)NCCC[S+](C)C)cs2)cs1)[C@@H](C)O)[C@@H](OC1OC(CO)C(O)C(O)C1OC1OC(CO)C(O)C(OC(N)=O)C1O)c1cnc[nH]1 (stereo partly drawn) [Bleomycin]	0	0	0	0	0	0.0343	0.0155	1.38	0	0.51	0	0.117	0	0.615	0	> 10 µM	> 10 µM	> 10 µM	> 10 µM	> 10 µM	> 10 µM	> 10 µM	> 10 µM	> 10 µM					
Cn1c(Nc2ccc(C(F)(F)F)cc2)nc2cc(Oc3ccnc(-c4ncc(C(F)(F)F)[nH]4)c3)ccc21 [RAF265]	0	0	0	0	0	0	0	8.26	0	0.294	0	0	0.002	0	0	> 1 µM	> 1 µM	> 1 µM	> 1 µM	> 1 µM	> 1 µM	> 1 µM		> 1 µM	> 1 µM	> 1 µM	> 1 µM	> 1 µM	
Oc1nc(-c2ccc(C(F)(F)F)cc2)nc2c1CSCC2 [XAV-939]	0	3.71	0	0	0	0	0.115	3.2	0	0	0	0	0.39	0	0	> 10 µM		> 10 µM	> 10 µM	> 10 µM	> 10 µM	> 10 µM		> 10 µM	> 10 µM		> 10 µM	> 10 µM	> 10 µM
CNC(=O)c1ccc(N2C(=S)N(c3ccc(C#N)c(C(F)(F)F)c3)C(=O)C2(C)C)cc1F [Enzalutamide (MDV 3100)]	0	0.634	0	0	0	0	0.74	0	0	0	0	0	0	0	0			> 10 µM	> 10 µM	> 10 µM	> 10 µM	> 10 µM	> 10 µM	> 10 µM	> 10 µM		> 10 µM	> 10 µM	> 10 µM
